In US10519133B2, “Vinyl compounds as FGFR and VEGFR inhibitors” (MEDSHINE DISCOVERY INC., priority 2015, dated 2019):
Like-named read-outs stand apart in the source and are kept apart here.

Assays:
[1] = test system: SNU-16 cell; assay: CellTiter-Glo Luminescent Cell Viability Assay; format: cell-based; details: Homo sapiens, 72 h; SNU-16 cells, 3 days; read-out: SNU-16 IC50 (CellTiter-Glo Detection)
Protocol: To detect the change of intracellular ATP by CellTiter-Glo® Luminescent Cell Viability Assay, and to evaluate the inhibitory effect of the compounds on in vitro cell SNU-16 using IC50 value of the compounds as an indicator.
Cell line: SNU-16 cell strain d. Diluting SNU-16 with medium, adding the diluted cells to the 384 plate (Greiner. 781090) (50 μL/well, SNU-16 cell 750 cells/well) with multi-channel pipette. Placing the cell plate in a 37° C., 5% CO2 incubator overnight. […]
g. Diluting the compound with DMSO to 10 mM, 3-fold dilution, 11 gradients, duplicate wells. h. Transferring 2.4 ul of the compound to the middle plate added with 47.6 ul of cell culture media at Bravo Automatic Liquid Station. Then transferring 5 ul to the cell culture plate (55 ul) to ensure the final DMSO concentration to be 0.4%. […]
i. Placing the cell culture plate in 5% CO2 incubator at 37° C. to continue cultivating for 3 days. d. Balancing Cell Titer Glo Reagent to room temperature e. Taking 30 ul of Cell Titer Glo Reagent in a 1:2 ratio into each well and gently mixing for 2 minutes f. Placing the cell culture plate in an incubator (23° C.) for 10 minutes, taking out and centrifuging at 1000 rpm for 1 minute g. Reading on Envision (Perkin Elmer) Plate Reader.
H. Analyzing Data: Analyzing the Data Using XLFIT (IDBS) and Calculating IC50 Values for the Compounds.

[2] = molecular target: T1, FGFR1 (Homo sapiens, UniProt P11362); assay: Z′-LYTE Detection Kinase Assay, in vitro enzymatic activity; format: biochemical; details: 0.6 nM FGFR1, 2 uM Tyr4 peptide, 10 uM ATP, 60 min 23° C.
T1 construct: purchased Invitrogen PV4105
T1 sequence (P11362 22-822): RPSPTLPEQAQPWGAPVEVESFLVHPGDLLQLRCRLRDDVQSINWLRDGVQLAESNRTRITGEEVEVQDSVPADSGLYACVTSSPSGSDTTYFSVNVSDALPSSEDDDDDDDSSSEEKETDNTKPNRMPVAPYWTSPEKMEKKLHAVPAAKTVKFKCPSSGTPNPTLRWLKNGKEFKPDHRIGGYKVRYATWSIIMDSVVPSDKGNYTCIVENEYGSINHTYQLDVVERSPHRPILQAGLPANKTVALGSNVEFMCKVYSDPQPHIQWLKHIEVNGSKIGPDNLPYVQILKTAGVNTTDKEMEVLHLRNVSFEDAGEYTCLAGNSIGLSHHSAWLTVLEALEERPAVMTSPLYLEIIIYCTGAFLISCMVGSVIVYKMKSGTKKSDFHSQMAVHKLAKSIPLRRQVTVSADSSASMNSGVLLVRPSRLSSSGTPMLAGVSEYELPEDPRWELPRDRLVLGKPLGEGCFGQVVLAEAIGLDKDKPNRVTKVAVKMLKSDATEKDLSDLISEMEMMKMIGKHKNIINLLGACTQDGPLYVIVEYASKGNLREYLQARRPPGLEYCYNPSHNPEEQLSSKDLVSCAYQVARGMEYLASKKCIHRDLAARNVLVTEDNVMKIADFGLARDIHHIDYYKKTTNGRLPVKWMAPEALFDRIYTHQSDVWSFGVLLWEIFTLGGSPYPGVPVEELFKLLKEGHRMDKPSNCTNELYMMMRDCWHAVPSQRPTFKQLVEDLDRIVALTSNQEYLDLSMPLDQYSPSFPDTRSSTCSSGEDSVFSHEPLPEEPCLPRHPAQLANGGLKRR
Protocol: To measure enzyme activity by Z′-LYTE™ Detection Kinase Assay, and to evaluate the inhibitory effect of the compounds on FGFR1 using IC50 value of the compounds as an indicator. […]
Reaction Buffer: 50 mM Hepes (pH 7.5), 10 mM MgCl2, 1 mM EGTA, 0.01% Brij-35, 1 mM DTT, 2 mM MnCl2 0.6 nM FGFR1, 2 uM Tyr4 peptide and 10 uM ATP in reaction buffer (50 mM Hepes, pH 7.5, 10 mM MgCl2, 0.01% BRIJ-35, 1 mM EGTA, 4 mM MnCl2, 2 mM DTT). a. Diluting the compounds with DMSO to 10 mM, 3-fold dilution, 11 gradients, duplicate wells. b. Diluting the compound by 1:25 into middle plate at Bravo Automatic Liquid Station, then transferring 2.5 ul to the reaction plate to ensure the final DMSO concentration to be 1%. c. Transferring 5 ul of enzyme/substrate buffer into each well d. Using Multidrop Liquid Workstation to sequentially add ATP solution to each well e. Centrifuging at 1000 rpm for 1 minute f. Placing the reaction plate in an incubator at 23° C. to react for 60 min. a. Preparing a 1:128 mixture of Development Regent B and Development Buffer b. Adding 5 ul to each well and centrifuging at 1000 rpm for 1 minute c. Placing the reaction plate in a thermostat (23° C.) after centrifuging for 90 minutes, removing and reading on Envision (Perkin Elmer) Plate Reader
D. Analyzing Data: Analyzing Data Using XLFIT (IDBS) and Calculating IC50 Values for the Compounds.

[3] = Pharmacokinetics after intravenous and intragastric administration (Experimental Example 4); format: in vivo; details: female Balb/c nude mice; for bioavailability / AUC(0-t) / Cmax / half-life / clearance / Vd: mouse, plasma; for Cmax: read-out: peak concentration (Cmax); for half-life: read-out: elimination half-life (T1/2) (converted); for clearance: read-out: plasma clearance (CL); for Vd: read-out: steady state apparent volume of distribution (Vdss)
Protocol: Experimental Procedure: A clear solution of the test compound in 20% DMSO/60% PEG400/20% water at 1 mg/ml was injected via the caudal vein into female Balb/c nude mice (fasted overnight, 7-9 weeks of age) with a dose of 1 mg/kg. The test compound suspended in 0.5% Methocel/0.2% Tween 80 at 1 mg/ml was administered by intragastric administration to female Balb/c nude mice (fasted overnight, 7-9 weeks of age) with a dose of 10 mg/kg. About 30 μL of blood collected from the jugular vein or caudal vein at 0.0833, 0.25, 0.5, 1.0, 2.0, 4.0, 8.0 and 24 h after administration in both groups of animals, were placed in anticoagulation tube with EDTA-K2 and the plasma was centrifuged. Plasma concentrations were determined by LC-MS/MS and related pharmacokinetic parameters were calculated using the non-compartmental model linear logarithmic trapezoidal method using WinNonlin™ Version 6.3 (Pharsight, Mountain View, Calif.) pharmacokinetic software.

[4] = po, single intragastric administration 10 mg/kg
[5] = po, single intragastric administration 10 mg/kg, read-out: AUC0-last
[6] = single intravenous injection 1.0 mg/kg, read-out: area under the plasma concentration curve (AUC0-last)
[7] = single intravenous injection 1.0 mg/kg
[8] = single intragastric administration 10 mg/kg

| IC50 [1] [nM] | IC50 [2] [nM] | SMILES | also measured |
| --- | --- | --- | --- |
| 10 to 1000 | 50 to 1000 | CC(Oc1ccc2[nH]nc(/C(F)=C/c3ccc(CN4CCOCC4)nc3)c2c1)c1c(Cl)cncc1Cl (racemic) [Example 1] | – |
| ≤ 10 | 50 to 1000 | C[C@H](Oc1ccc2[nH]nc(/C=C(\F)c3ccc(CNC4CCOCC4)nc3)c2c1)c1c(Cl)cncc1Cl [Example 17] | – |
| ≤ 10 | ≤ 10 | C[C@@H](Oc1ccc2[nH]nc(/C=C(\F)c3ccc(CN4CCC(CO)CC4)nc3)c2c1)c1c(Cl)cncc1Cl [Example 21] | – |
| 10 to 1000 | ≤ 10 | C[C@@H](Oc1ccc2[nH]nc(/C=C(\F)c3ccc(CN4CCN(CC(=O)O)CC4)nc3)c2c1)c1c(Cl)cncc1Cl [Example 29] | – |
| ≤ 10 | ≤ 10 | C[C@@H](Oc1ccc2[nH]nc(/C=C(\F)c3ccc(CN4CCNCC4)nc3)c2c1)c1c(Cl)cncc1Cl [Example 32] | – |
| ≤ 10 | ≤ 10 | C[C@@H](Oc1ccc2[nH]nc(/C=C(\F)c3ccc(CN4CCN(C)CC4)nc3)c2c1)c1c(Cl)cncc1Cl [Example 33] | – |
| ≤ 10 | ≤ 10 | COC1CCN(Cc2ccc(/C(F)=C/c3n[nH]c4ccc(O[C@H](C)c5c(Cl)cncc5Cl)cc34)cn2)C1 (stereo partly drawn) [Example 34] | – |
| ≤ 10 | 50 to 1000 | C[C@@H](Oc1ccc2[nH]nc(/C=C(\F)c3ccc(OCC4CCOCC4)nc3)c2c1)c1c(Cl)cncc1Cl [Example 41] | – |
| ≤ 10 | 50 to 1000 | C[C@@H](Oc1ccc2[nH]nc(/C=C(\F)c3ccc(NC4CCOCC4)nc3)c2c1)c1c(Cl)cncc1Cl [Example 45] | – |
| ≤ 10 | ≤ 10 | C[C@@H](Oc1ccc2[nH]nc(/C=C(\F)c3ccc(NC4CCNCC4)nc3)c2c1)c1c(Cl)cncc1Cl [Example 47] | – |
| ≤ 10 | 10 to 50 | CC(Oc1ccc2[nH]nc(/C=C/c3cnc(CN4CCOCC4)cn3)c2c1)c1c(Cl)cncc1Cl (stereo not drawn) [Example 53] | – |
| ≤ 10 | 50 to 1000 | CC(Oc1ccc2[nH]nc(/C=C/c3cc(F)c(CN4CCOCC4)cc3C#N)c2c1)c1c(Cl)cncc1Cl (stereo not drawn) [Example 62] | – |
| ≤ 10 | 50 to 1000 | CC(Oc1ccc2[nH]nc(-c3ccc(NC(=O)CN4CCOCC4)nc3)c2c1)c1c(Cl)cncc1Cl (stereo not drawn) [Example 70] | – |
| ≤ 10 | ≤ 10 | CC(Oc1ccc2[nH]nc(/C=C/c3ccc(CNC4CCN(C)CC4)cc3)c2c1)c1c(Cl)cncc1Cl (stereo not drawn) [Example 76] | – |
| – | 50 to 1000 | CC1CN(C(=O)c2ccc(-c3n[nH]c4ccc(OC(C)c5c(Cl)cncc5Cl)cc34)cc2)CCN1 (stereo not drawn) [Example 112] | – |
| – | 50 to 1000 | CC(Oc1ccc2[nH]nc(-c3ccc(C(=O)N4CCOCC4)cc3)c2c1)c1c(Cl)cncc1Cl (stereo not drawn) [Example 113] | – |
| – | 50 to 1000 | CC(Oc1ccc2[nH]nc(-c3ccc(C(=O)N4CCC(O)CC4)cc3)c2c1)c1c(Cl)cncc1Cl (stereo not drawn) [Example 114] | – |
| – | 10 to 50 | CC(Oc1ccc2[nH]nc(-c3ccc(C(=O)N4CCC(N(C)C)CC4)cc3)c2c1)c1c(Cl)cncc1Cl (stereo not drawn) [Example 115] | – |
| – | 50 to 1000 | CC(Oc1ccc2[nH]nc(-c3ccc(C(=O)N4CCN(C)CC4)cc3)c2c1)c1c(Cl)cncc1Cl (stereo not drawn) [Example 116] | – |
| – | 50 to 1000 | CC(Oc1ccc2[nH]nc(-c3ccc(C(=O)N4CCN(C(C)C)CC4)cc3)c2c1)c1c(Cl)cncc1Cl (stereo not drawn) [Example 117] | – |
| – | 50 to 1000 | CC(Oc1ccc2[nH]nc(-c3ccc(C(=O)N4CCC(O)C4)cc3)c2c1)c1c(Cl)cncc1Cl (stereo not drawn) [Example 119] | – |
| – | 50 to 1000 | CC(=O)N(C)C1CCN(C(=O)c2ccc(-c3n[nH]c4ccc(OC(C)c5c(Cl)cncc5Cl)cc34)cc2)C1 (stereo not drawn) [Example 120] | – |

| IC50 [1] [nM] | IC50 [2] [nM] | SMILES | also measured |
| --- | --- | --- | --- |
| – | 50 to 1000 | CC(Oc1ccc2[nH]nc(-c3ccc(C(=O)N4CC[C@@H](N(C)C)C4)cc3)c2c1)c1c(Cl)cncc1Cl (stereo partly drawn) [Example 121] | – |
| – | 50 to 1000 | CC(Oc1ccc2[nH]nc(-c3ccc(C(=O)NCCN4CCOCC4)cc3)c2c1)c1c(Cl)cncc1Cl (stereo not drawn) [Example 125] | – |
| – | 50 to 1000 | CC(Oc1ccc2[nH]nc(-c3ccc(C(=O)N4CCNCC4C)cc3)c2c1)c1c(Cl)cncc1Cl (stereo not drawn) [Example 126] | – |
| – | 50 to 1000 | C[C@@H](Oc1ccc2[nH]nc(-c3cccc(C(=O)NC4CCOCC4)c3)c2c1)c1c(Cl)cncc1Cl [Example 127] | – |
| – | 50 to 1000 | C[C@@H](Oc1ccc2[nH]nc(-c3cccc(C(=O)N4CC[C@H](O)C4)c3)c2c1)c1c(Cl)cncc1Cl [Example 129] | – |
| – | 50 to 1000 | C[C@@H](Oc1ccc2[nH]nc(-c3cccc(C(=O)N4CCC(CO)CC4)c3)c2c1)c1c(Cl)cncc1Cl [Example 130] | – |
| – | ≤ 10 | C[C@@H](Oc1ccc2[nH]nc(/C=C/c3cccc(CNC4CCOCC4)c3)c2c1)c1c(Cl)cncc1Cl [Example 132] | – |
| – | ≤ 10 | C[C@@H](Oc1ccc2[nH]nc(/C=C/c3cccc(CN4CCC(O)C4)c3)c2c1)c1c(Cl)cncc1Cl (stereo partly drawn) [Example 134] | – |
| – | ≤ 10 | C[C@@H](Oc1ccc2[nH]nc(/C=C/c3cccc(CN4CCC(CO)CC4)c3)c2c1)c1c(Cl)cncc1Cl [Example 135] | – |
| – | ≤ 10 | C[C@@H](Oc1ccc2[nH]nc(/C=C/c3ccc(CN4CCOCC4)nc3)c2c1)c1c(Cl)cncc1Cl [Example 137] | – |
| – | ≤ 10 | C[C@@H](Oc1ccc2[nH]nc(/C=C/c3ccc(CN4CC[C@H](O)C4)nc3)c2c1)c1c(Cl)cncc1Cl [Example 138] | – |
| – | 10 to 50 | C[C@@H](Oc1ccc2[nH]nc(/C=C/c3ccc(CN4CCC(CO)CC4)nc3)c2c1)c1c(Cl)cncc1Cl [Example 140] | – |
| – | 10 to 50 | C[C@@H](Oc1ccc2[nH]nc(/C=C(\F)c3ccc(CNC4CCOCC4)nc3)c2c1)c1ccncc1Cl [Example 142] | – |
| – | 50 to 1000 | CC(Oc1ccc2[nH]nc(/C=C(\F)c3ccc(CNC4CCOCC4)nc3)c2c1)c1ccc(F)cc1Cl (stereo not drawn) [Example 143] | – |
| – | ≤ 10 | CC(Oc1ccc2[nH]nc(/C=C(\F)c3ccc(CNC4CCOCC4)nc3)c2c1)c1cc(F)cc(F)c1 (stereo not drawn) [Example 144] | – |
| – | 50 to 1000 | CC(Oc1ccc2[nH]nc(/C=C(\F)c3ccc(CNC4CCOCC4)nc3)c2c1)c1c(F)cccc1Cl (stereo not drawn) [Example 145] | – |
| – | ≤ 10 | CC(Oc1ccc2[nH]nc(/C=C(\F)c3ccc(CNC4CCOCC4)nc3)c2c1)c1c(F)cncc1F (stereo not drawn) [Example 146] | – |
| – | 50 to 1000 | CC(Oc1ccc2[nH]nc(/C=C(\F)c3ccc(CNC4CCOCC4)nc3)c2c1)c1c(F)cccc1F (stereo not drawn) [Example 147] | – |
| – | 50 to 1000 | CCN1CCC(C(C)Oc2ccc3[nH]nc(/C=C/c4ccc(CN5CCOCC5)cc4)c3c2)CC1 (stereo not drawn) [Example 148] | – |
| – | 50 to 1000 | CC(Oc1ccc2[nH]nc(/C=C/c3ccc(CN4CCOCC4)cc3)c2c1)C1CCN(C)CC1 (stereo not drawn) [Example 149] | – |
| – | – | C[C@@H](Oc1ccc2[nH]nc(/C=C/c3ccc(CNC4CCOCC4)nc3)c2c1)c1c(Cl)cncc1Cl [WX_015, reference compound] | bioavailability [3, 4]: 11.4%; AUC(0-t) [3, 5]: 0.439 ± 0.202 µM·h; Cmax [3, 4]: 134 ± 68.3 nM; AUC(0-t) [3, 6]: 0.386 ± 0.0883 µM·h; half-life [3, 7]: 0.971 ± 0.461 h; clearance [3, 7]: 83.5 ± 18.5 mL/min/kg; Vd [3, 7]: 5.31 ± 0.268 L/kg; peak time [3, 8]: 1.50 ± 0.866 h |
| – | – | C[C@@H](Oc1ccc2[nH]nc(/C=C(\F)c3ccc(CNC4CCOCC4)nc3)c2c1)c1c(Cl)cncc1Cl [WX_018] | bioavailability [3, 4]: 30.1%; AUC(0-t) [3, 5]: 1.65 ± 0.0401 µM·h; Cmax [3, 4]: 479 ± 62.9 nM; AUC(0-t) [3, 6]: 0.567 ± 0.0194 µM·h; half-life [3, 7]: 1.57 ± 0.0286 h; clearance [3, 7]: 53 ± 1.69 mL/min/kg; Vd [3, 7]: 5.45 ± 0.491 L/kg; peak time [3, 8]: 2.00 h |
